Measurements reported in patent US10213445B2, “Compositions and methods of diazeniumdiolate-based prodrugs for treating cancer” (ARIZONA BOARD OF REGENTS ON BEHALF OF THE UNIVERSITY OF …, priority 2014, dated 2019).

Experiments:
MDA-MB-231 cells = assay: Alkaline Comet assay of DNA damage; type: cell-based, human; settings: 75 μM, 8 hours, 37° C.
Experimental: Tail length: mean±SEM, n≥150.
Autoxidation of both NO and HNO leads to species that are capable of damaging DNA. Conversion of NO to N2O3 can induce mutations through base deamination) while the product of the reaction of HNO with O2 can oxidize and cleave DNA. To investigate the possibility of RNS-induced DNA damage as a mechanism of cytotoxicity, the effect of the NONO-aspirin prodrugs was studied with the alkaline Comet assay in MDA-MB-231 cells. After 8 hours, the damage induced by treatment with 50 μM IPA/NO-aspirin was significant (FIG. 7A) and similar to the H2O2 positive control (FIG. 7C). […] This may be an important factor in the observed enhanced cytotoxicity of IPA/NO-aspirin. In particular, IPA/NO-aspirin is able to damage DNA (FIG. 7) including inducing double strand breaks, in a manner similar to radiation therapy and chemotherapies such as doxorubicin.

lung carcinoma cells = settings: selective compared to normal endothelial cells, read-out: IC50 (proliferation); cited from earlier work
MCF-10A cells = assay: MTT cell viability; type: cell-based, human; settings: read-out: concentration for 50% reduction of viability (IC50), 48 h, did not reach a 50% reduction at 200 μM
Experimental: (§1) Figures are representative of three trials with data plotted as mean percentage versus untreated cells±SD of the four replicates per plate). Vehicle (DMSO or 10 mM NaOH) was added as a control to otherwise untreated cells.
(§2) For examples utilizing cell culture methods, the following procedure was instituted. Human breast adenocarcinoma cells (MDA-MB-231, MCF-7 and MDA-MB-468; American Type Culture Collection, Manassas, Va.) were grown as monolayers in RPMI 1640 (Invitrogen, Carlsbad, Calif.) supplemented with 10% FBS (Hyclone, Thermo Fisher Scientific Inc., Waltham, Mass.), penicillin (50 units mL^−1) and streptomycin ([…]; Life Technologies, Inc., Grand Island, N.Y.). Non-tumorigenic, human breast epithelial cells (MCF-10A; American Type Culture Collection) and HUVECs (Cell Applications, Inc., San Diego, Calif.) were grown as monolayers in endothelial growth media (Lonza Inc., US-Allendale, N.J. or Cell Applications, Inc., San Diego, Calif.). Cells were seeded at a density of 1×10^6 cells per 100 cm^2 culture dish and were incubated at 37° C. in 5% CO2 at 80% relative humidity. Single-cell suspensions were obtained by trypsinization (0.05% trypsin/EDTA, Invitrogen, Carlsbad, Calif.). MDA-MB-231 cells stably transfected with green fluorescent protein (GFP) and G418 antibiotic resistance gene were a generous gift from Dr. Aldona Karaczyn from the Maine Medical Center Research Institute, Scarborough, Me. MDA-MB-231-GFP cells were grown as described for MDA-MB-231 cells with the addition of […] ([…]) to ensure vector presence.
(§3) In this example, the impact of IPA/NO-aspirin and DEA/NO-aspirin was assessed compared to aspirin or the parent diazeniumdiolate on proliferation of four human breast cell lines: MDA-MB-231 (ER(−) adenocarcinoma), MDA-MB-468 (ER(−) adenocarcinoma), MCF-7 (ER(+) adenocarcinoma) and MCF-10A (non-tumorigenic, immortalized human breast epithelial cells).

MDA-MB-468 cells = assay: MTT cell viability; type: cell-based, human; settings: read-out: concentration for 50% reduction of viability (IC50), MDA-MB-468, 48 h, mean ± SD for three trials
Experimental: as §1, §2, §3

[1] = Prodrug decomposition in cells; type: in vitro ADME; settings: A549 cells
HUVECs [2] = assay: Tube formation (angiogenesis) in Matrigel; type: cell-based, human; settings: 12 hours, 1 and 10 μM, vs control
Experimental: Cells in Matrigel were treated with A) DMSO, B) 1 μM or C) 10 μM IPA/NO-aspirin, D) 1 μM or E) 10 μM DEA/NO-aspirin at 37° C., and the extent of tube formation was measured after 12 h using a microscope.
The impact of the NONO-aspirin prodrugs on tube formation in HUVECs after 12 hours treatment was examined as a measure of angiogenesis.

HUVECs [3] = assay: Cytotoxicity toward HUVECs; type: cell-based, human; settings: previously determined
MDA-MB-231 xenografts = assay: MDA-MB-231-GFP xenograft growth and brain metastasis in nude mice; type: in vivo; settings: daily injection of equimolar doses for five weeks; for size of the primary tumor (GFP fluorescence intensity, tumor mass): vs control
Experimental: The cells were allowed to grow for 14 d, and the animals (40) were randomly divided into four groups (control, aspirin, IPA/NO-aspirin or DEA/NO-aspirin). Treated groups were injected daily with equimolar doses of DEA/NO-aspirin or IPA/NO-aspirin (16 mg kg^−1) or aspirin (9 mg kg^−1)) or with DMSO for the next five weeks.
For examples utilizing mouse tumor model methods, the following procedure was instituted. Analysis of tumor growth was carried out using protocols approved by the Committee on the Ethics of Animal Experiments of the National Cancer Institute (RBB-144) and adhered with the recommendations in the United States National Research Council's “Guide for the Care and Use of Laboratory Animals,” the United States Public Health Service's “Guide for the Care and Use of Laboratory Animals” and the “Policy on Humane Care and Use of Laboratory Animals”. The vivarium was maintained at 23° C. on a 12 h light/12 h dark cycle with ad libitum access to food and water. Nude mice (n=40) under general anesthesia were implanted with 7.5×10^5 MDA-MB-231 cells transfected with GFP by injection underneath the fourth left mammary gland. Prior to implantation, pedal withdrawal and eyelid reflexes were examined to ensure that mice were under stage III of anesthesia. At 14 days post-inoculation, the mice were randomly divided into four groups and treated by daily injection of equimolar doses (10 μL of 100 mM stock) of aspirin (9.00 mg kg^−1), IPA/NO-aspirin (15.8 mg kg^−1) or DEA/NO-aspirin (16.3 mg kg^−1) or with vehicle (DMSO). After five weeks, the tumor size was measured using in vivo fluorescent imaging for quantification of the GFP tag. In brief, mice were under general anesthesia throughout the whole body imaging process, and GFP signals were captured and quantified in an Xenogen IVIS 100 Imaging System according to the manufacturer's protocol. To assess metastasis in the brain, the animals were subsequently sacrificed following the approved method and guidelines.

BCL-2 = BCL-2 expression; type: cell-based; settings: FIG. 18
prostaglandin E2 (PGE2) = settings: cited from earlier work
ER-α = ER-α levels (mRNA of ER1) in ER-α(−) cells; type: cell-based; settings: FIG. 20

Structure (SMILES) | DNA damage (Comet assay) (MDA-MB-231 cells) | IC50 (lung carcinoma cells) | IC50 (MCF-10A cells) | IC50 (MDA-MB-468 cells) | lifetime in cells relative to IPA/NO-aspirin [1] | angiogenesis (tube formation) (HUVECs [2]) | cytotoxicity toward HUVECs (HUVECs [3]) | metastasis to the brain (GFP fluorescence) (MDA-MB-231 xenografts) | size of the primary tumor (GFP fluorescence intensity, tumor mass) (MDA-MB-231 xenografts) | time to complete decomposition in cells [1] | BCL-2 expression (BCL-2) | level of PGE2 (prostaglandin E2 (PGE2)) | ER-α levels (ER-α)
CCN(CC)[N+]([O-])=NOCOC(=O)c1ccccc1OC(C)=O [DEA/NO-aspirin, O2-(Acetylsalicyloyloxymethyl)-1-(N,N-Diethylamino)-diazen-1-ium-1,2-diolate] | did not differ from the DMSO-treated negative control | 100 µM | > 200 µM | 90 ± 4 µM | about three times longer-lived | reduced angiogenesis | neither IPA/NO-aspirin or DEA/NO-aspirin are appreciably cytotoxic | decreased metastasis compared to aspirin and untreated controls, the results were not statistically significant | substantial, although not statistically significant, reduction |  |  |  | 
CC(=O)Oc1ccccc1C(=O)OCON=[N+]([O-])NC(C)C [IPA/NO-aspirin, O2-(Acetylsalicyloyloxymethyl)-1-(N-isopropylamino)-diazen-1-ium-1,2-diolate] |  | 100 µM | > 200 µM | 81 ± 2 µM |  | reduced angiogenesis | neither IPA/NO-aspirin or DEA/NO-aspirin are appreciably cytotoxic | decreased metastasis compared to aspirin and untreated controls, the results were not statistically significant | significant decrease | approximately 3 hours | inhibits the aspirin effect | reduction in PGE2 levels | inhibit the aspirin effect
